Legend:
Type in all cases: in vivo
Yellow nutsedge [1] = experiment: Pre-emergence herbicide test; conditions: Cyperus, read-out: % plant inhibition (Yens); for inhibition at 1120 g/ha: 1.12 kg/ha
Method: (§1) The tests for pre-emergence herbicide activity are conducted as follows:
(§2) Topsoil is placed in an aluminum pan and compacted to a depth of 0.95 to 1.27 cm from the top of the pan. On the top of the soil is placed a predetermined number of seeds of each of several monocotyledonous and dicotyledonous annual plant species and/or vegetative propagules of various perennial plant species. A known amount of the active ingredient dissolved or suspended in an organic solvent, e.g., acetone, or water as carrier is then applied directly to the seed bed, which is then covered with a layer of untreated topsoil to level fill the pan. After treatment, the pans are moved to a greenhouse bench where they are watered from below as needed to give adequate moisture for germination and growth.
(§3) Approximately 10-14 days (usually 11 days) after seeding and treating, the pans are observed and the results (% inhibition) are recorded.
(§4) Tables 7 and 7A below summarize the results of the pre-emergence herbicidal activity tests of compounds of this invention in weeds. The herbicidal rating shown in these tables is the percent inhibition of each plant species. The plant species usually regarded as weeds which are utilized in one set of tests, the data for which are shown in the tables, are identified by letter headings above the columns in accordance with the following legend: […]

Wild buckwheat [2] = experiment: Pre-emergence herbicide test; conditions: Fallopia convolvulus, read-out: % plant inhibition (Wibw); for inhibition at 1120 g/ha: 1.12 kg/ha
Method: as §1, §2, §3, §4

Barnyardgrass [3] = experiment: Pre-emergence herbicide test; conditions: Echinochloa crus-galli, read-out: % plant inhibition (Bygr); for inhibition at 1120 g/ha: 1.12 kg/ha
Method: as §1, §2, §3, §4

Cocklebur [4] = experiment: Pre-emergence herbicide test; conditions: Xanthium strumarium, read-out: % plant inhibition (Cobu); for inhibition at 1120 g/ha: 1.12 kg/ha
Method: as §1, §2, §3, §4

Morningglory [5] = experiment: Pre-emergence herbicide test; conditions: Ipomoea, read-out: % plant inhibition (Mogl); for inhibition at 1120 g/ha: 1.12 kg/ha
Method: as §1, §2, §3, §4

Annual bluegrass [6] = experiment: Pre-emergence herbicide test; conditions: read-out: % plant inhibition (Anbg); for inhibition at 1120 g/ha: 1.12 kg/ha
Method: as §1, §2, §3, §4

Seedling johnsongrass [7] = experiment: Pre-emergence herbicide test; conditions: Sorghum halepense, read-out: % plant inhibition (Sejg); for inhibition at 1120 g/ha: 1.12 kg/ha
Method: as §1, §2, §3, §4

Velvetleaf [8] = experiment: Pre-emergence herbicide test; conditions: Abutilon theophrasti, read-out: % plant inhibition (Vele); for inhibition at 1120 g/ha: 1.12 kg/ha
Method: as §1, §2, §3, §4

Downy Brome [9] = experiment: Pre-emergence herbicide test; conditions: Bromus tectorum, read-out: % plant inhibition (Dobr); for inhibition at 1120 g/ha: 1.12 kg/ha
Method: as §1, §2, §3, §4

Indian Mustard [10] = experiment: Pre-emergence herbicide test; conditions: Brassica juncea, read-out: % plant inhibition (Inmu); for inhibition at 1120 g/ha: 1.12 kg/ha
Method: as §1, §2, §3, §4

Yellow nutsedge [11] = experiment: Post-emergence herbicide test; conditions: Cyperus, read-out: % plant inhibition (Yens); for inhibition at 1120 g/ha: 1.12 kg/ha
From the text: (§5) Topsoil is placed in aluminum pans having holes in the bottom and compacted to a depth of 0.95 to 1.27 cm from the top of the pan. A predetermined number of seeds of each of several dicotyledonous and monocotyledonous annual plant species and/or vegetative propagules for the perennial plant species are placed on the soil and pressed into the soil surface. The seeds and/or vegetative propagules are covered with soil and leveled. The pans are then placed on a bench in the greenhouse and watered from below as needed. After the plants reach the desired age (two to three weeks), each pan, is removed individually to a spraying chamber and sprayed by means of an atomizer, operating at a spray pressure of 170.3 kPa (10 psig) at the application rates noted. In the spray solution is an amount of an emulsifying agent mixture to give a spray solution or suspension which contains about 0.4% by volume of the emulsifier. The spray solution or suspension contains a sufficient amount of the candidate chemical in order to give application rates of the active ingredient corresponding to those shown in Tables 8 and 8A, while applying a total amount of solution or suspension equivalent to 1870 L/Ha (200 gallons/acre). The pans were returned to the greenhouse and watered as before and the injury to the plants as compared to the control is observed at approximately 10-14 days (usually 11 days) and in some instances observed again at 24-28 days (usually 25 days) after spraying. The post-emergent herbicidal activity shown in these tables is the percent inhibition of each plant species.

Wild buckwheat [12] = experiment: Post-emergence herbicide test; conditions: Fallopia convolvulus, read-out: % plant inhibition (Wibw); for inhibition at 1120 g/ha: 1.12 kg/ha
From the text: as §5

Barnyardgrass [13] = experiment: Post-emergence herbicide test; conditions: Echinochloa crus-galli, read-out: % plant inhibition (Bygr); for inhibition at 1120 g/ha: 1.12 kg/ha
From the text: as §5

Cocklebur [14] = experiment: Post-emergence herbicide test; conditions: Xanthium strumarium, read-out: % plant inhibition (Cobu); for inhibition at 1120 g/ha: 1.12 kg/ha
From the text: as §5

Morningglory [15] = experiment: Post-emergence herbicide test; conditions: Ipomoea, read-out: % plant inhibition (Mogl); for inhibition at 1120 g/ha: 1.12 kg/ha
From the text: as §5

Annual bluegrass [16] = experiment: Post-emergence herbicide test; conditions: read-out: % plant inhibition (Anbg); for inhibition at 1120 g/ha: 1.12 kg/ha
From the text: as §5

Seedling johnsongrass [17] = experiment: Post-emergence herbicide test; conditions: Sorghum halepense, read-out: % plant inhibition (Sejg); for inhibition at 1120 g/ha: 1.12 kg/ha
From the text: as §5

Velvetleaf [18] = experiment: Post-emergence herbicide test; conditions: Abutilon theophrasti, read-out: % plant inhibition (Vele); for inhibition at 1120 g/ha: 1.12 kg/ha
From the text: as §5

Downy Brome [19] = experiment: Post-emergence herbicide test; conditions: Bromus tectorum, read-out: % plant inhibition (Dobr); for inhibition at 1120 g/ha: 1.12 kg/ha
From the text: as §5

Indian Mustard [20] = experiment: Post-emergence herbicide test; conditions: Brassica juncea, read-out: % plant inhibition (Inmu); for inhibition at 1120 g/ha: 1.12 kg/ha
From the text: as §5

SMILES	inhibition at 1120 g/ha (Yellow nutsedge [1]) [%]	inhibition at 1120 g/ha (Wild buckwheat [2]) [%]	inhibition at 1120 g/ha (Barnyardgrass [3]) [%]	inhibition at 1120 g/ha (Cocklebur [4]) [%]	inhibition at 1120 g/ha (Morningglory [5]) [%]	inhibition at 1120 g/ha (Annual bluegrass [6]) [%]	inhibition at 1120 g/ha (Seedling johnsongrass [7]) [%]	inhibition at 1120 g/ha (Velvetleaf [8]) [%]	inhibition at 1120 g/ha (Downy Brome [9]) [%]	inhibition at 1120 g/ha (Indian Mustard [10]) [%]	inhibition at 1120 g/ha (Yellow nutsedge [11]) [%]	inhibition at 1120 g/ha (Wild buckwheat [12]) [%]	inhibition at 1120 g/ha (Barnyardgrass [13]) [%]	inhibition at 1120 g/ha (Cocklebur [14]) [%]	inhibition at 1120 g/ha (Morningglory [15]) [%]	inhibition at 1120 g/ha (Annual bluegrass [16]) [%]	inhibition at 1120 g/ha (Seedling johnsongrass [17]) [%]	inhibition at 1120 g/ha (Velvetleaf [18]) [%]	inhibition at 1120 g/ha (Downy Brome [19]) [%]	inhibition at 1120 g/ha (Indian Mustard [20]) [%]	other results
Cn1nc(C(F)(F)F)c(Cl)c1-c1ccc(Cl)cc1F [Compound 79]																					inhibition at 11210 g/ha (Yellow nutsedge [1]; 11.21 kg/ha): 20%; inhibition at 11210 g/ha (Wild buckwheat [2]; 11.21 kg/ha): 100%; inhibition at 11210 g/ha (Barnyardgrass [3]; 11.21 kg/ha): 80%; inhibition at 11210 g/ha (Cocklebur [4]; 11.21 kg/ha): 30%; inhibition at 11210 g/ha (Morningglory [5]; 11.21 kg/ha): 100%; inhibition at 11210 g/ha (Annual bluegrass [6]; 11.21 kg/ha): 90%; inhibition at 11210 g/ha (Seedling johnsongrass [7]; 11.21 kg/ha): 80%; inhibition at 11210 g/ha (Velvetleaf [8]; 11.21 kg/ha): 100%; inhibition at 11210 g/ha (Downy Brome [9]; 11.21 kg/ha): 80%; inhibition at 11210 g/ha (Indian Mustard [10]; 11.21 kg/ha): 100%; inhibition at 11210 g/ha (Yellow nutsedge [11]; 11.21 kg/ha): 10%; inhibition at 11210 g/ha (Wild buckwheat [12]; 11.21 kg/ha): 100%; inhibition at 11210 g/ha (Barnyardgrass [13]; 11.21 kg/ha): 20%; inhibition at 11210 g/ha (Cocklebur [14]; 11.21 kg/ha): 20%; inhibition at 11210 g/ha (Morningglory [15]; 11.21 kg/ha): 60%; inhibition at 11210 g/ha (Annual bluegrass [16]; 11.21 kg/ha): 60%; inhibition at 11210 g/ha (Seedling johnsongrass [17]; 11.21 kg/ha): 30%; inhibition at 11210 g/ha (Velvetleaf [18]; 11.21 kg/ha): 100%; inhibition at 11210 g/ha (Downy Brome [19]; 11.21 kg/ha): 20%; inhibition at 11210 g/ha (Indian Mustard [20]; 11.21 kg/ha): 90%
Cn1nc(-c2cc(C3SCCS3)c(Cl)cc2F)c(Cl)c1C(F)(F)F [Compound 101]	0	90	40	30	80	70	80	100	80	100	30	100	100	100	100	90	70	100	100	100	
CCOC(=O)C(C)Oc1cc(-c2nn(C)c(C(F)(F)F)c2Cl)c(F)cc1Cl (centres unmarked) [Compound 229, 2-(2-Chloro-5-(4-chloro-1-methyl-5-(trifluoromethyl)-1H-pyrazol-3-yl)-4-fluorophenoxy)propanoic acid, ethyl ester]	60	100	90	90	100	100	100	100	100	100	40	100	100	100	100	70	100	100	90	100	
C#CCOc1cc(-c2nn(C)c(C(F)(F)F)c2Cl)c(F)cc1Br [Compound 96]	20	100	80	60	100	100	90	100	100	100	40	100	100	90	100	100	100	100	100	100	
